# Values of other authors, collected in article PMC8435724, “A Single L/D-Substitution at Q4 of the mInsA2-10 Epitope Prevents Type 1 Diabetes in Humanized NOD Mice” (Frontiers in Immunology, 2021).
# Experiments:
# [1] = test system: insulin B15-23-reactive CD8^+ T cell clone G9C8; settings: cytotoxicity and IFN-γ production assays
# T cells of T1D patients = test system: T cells of T1D patients
# Text: Thus, human InsA2-10 is likely to be an immunogenic target for diabetic patients.
Substance,antagonist activity on clone G9C8 (in words) [1],presence of specific T cell responses (in words) (T cells of T1D patients)
G6H: APL of insulin B15-23 (LYLVCGERG) substituted at position 6 (LYLVCHERG),antagonist activity,–
"GIVEQCCTSI [InsA1-10, human proinsulin (PPI) 90-99 or InsA1-10 (…)]",–,presence of specific T cell responses
R8L: APL of insulin B15-23 (LYLVCGERG) substituted at position 8 (LYLVCGELG),antagonist activity,–
